In patent US20140228543A1, “MODIFIED AND DERIVATIZED ß-GLUCAN COMPOUNDS, COMPOSITIONS, AND METHODS” (Biothera, Inc., priority 2011, published 2014):

Key:
Type in all cases: cell-based
human neutrophils [1] = assay: iC3b deposition on neutrophils (flow cytometry); details: 200 μg/mL hexose concentration, 2 hr, 37° C., 10% serum
Protocol: This ability was evaluated by comparing the levels of iC3b complement fragment detected on human neutrophils with the derivative versus parent β-glucan-bound.
Enriched neutrophils were resuspended at 1×10^6 cells/mL in RPMI 1640 supplemented with 10% serum. The parent or the derivatized glucans at 200, μg/mL hexose concentration were added to neutrophils and incubated in a 37° C., 5% C02 humidified incubator for 2 hr. After incubation, cells were washed twice with FACS buffer (HBSS supplemented with 1% FBS and 0.1% sodium azide) to remove any unbound β-glucan, stained with a neo-epitope specific anti-iC3b Ab and PE-conjugated goat anti-mouse IgG and subsequently analyzed by flow cytometry.
Table 1 below lists the fold change of mean fluorescence intensity (MFI) values of iC3b staining on neutrophils treated with each of the parent or derivatized glucans over that of PBS control-treated cells.

human neutrophils [2] = assay: β-glucan binding on neutrophils (BfD IV staining, flow cytometry); details: 200 μg/mL hexose concentration, 2 hr, 37° C., 10% serum
Protocol: This ability was evaluated by comparing the levels of neutrophil-bound parent versus the derivatives of β-glucans detected by BfD IV, a monoclonal antibody (MAb) specific for β-1,3/1,6 glucans. […] Table 2 lists the fold change of MFI values of BfD IV staining on neutrophils treated with each of the parent and derivatized glucans over that of PBS control-treated cells.
Enriched neutrophils were resuspended at 1×10^6 cells/mL in RPMI 1640 supplemented with 10% serum. The parent or the derivatized glucans at 200, μg/mL hexose concentration were added to neutrophils and incubated in a 37° C., 5% CO2 humidified incubator for 2 hr. After incubation, cells were washed twice with FACS buffer (HBSS supplemented with 1% FBS and 0.1% sodium azide) to remove any unbound β-glucan, and subsequently treated with Fc block. Post Fc block step, cells were stained with the BfD IV Ab for 30 min at 4° C. and washed twice with cold FACS buffer. Cells were then incubated with FITC-conjugated F(ab′)2 goat anti-mouse IgM for 30 min at 4° C. and washed once with cold FACS buffer before fixing with 1% paraformaldehyde. Events were collected on a LSRII flow cytometer and analysis was performed using FlowJo software.
Table 2 summarizes the fold change of MFI values of BfD IV staining on neutrophils treated with each of the parent, or derivatized β-glucans, over that of PBS control-treated cells.

[3] = tested on: human peripheral blood mononuclear cells; assay: Oxidative burst (superoxide production by cytochrome c reduction) on immobilized glucan; details: human PBMCs, FIG. 5
Protocol: Dilutions of MMW and BT-1222 were prepared out-of-plate in water. Subsequently, 50 μL of each dilution were added to triplicate wells of Costar® Universal-Bind™ microtiter plates. For immobilizing the glucans on the plate, the plate was irradiated for 5 min in a UV cross-linker, and then incubated at 50° C. until completely dried. After checking for complete dryness of the plate, it was cross-linked again under UV for 5 minutes. The microtiter plates were then blocked with 0.25% bovine serum albumin (BSA) in DPBS for 30 min at room temperature. Each microtiter plate included positive control wells and negative control wells to which only water with no polysaccharide was added at this point.
The oxidative burst response was then determined by standard methods by measuring SO production through the reduction of cytochrome c. Peripheral blood mononuclear cells (PBMCs) were resuspended in HBSS/HEPES buffer with 0.25% BSA at a concentration of 4×10^6 cells/mL and maintained at 37° C. until added to the plate. A 100 μL aliquot of 200 μM bovine cytochrome c solution in HBSS/HEPES buffer previously incubated at 37° C. was added to each well. Approximately 4.0×10^5 cells, in a 100 μL volume, were subsequently added to each well of the microtiter plate. The negative assay control consisting of cells and cytochrome c was added in the uncoated negative control wells. As a positive assay control, just before reading the plate, phorbol myristate acetate (PMA) at 100 ng/mL was added as the stimulus to the cells in the uncoated positive control wells to achieve a final concentration of 50 ng/mL. The plate was maintained at 37° C., and optical density (OD) in each well was read at 550 nm every 15 min for 120 min using a spectrophotometer. For each concentration of polysaccharide, the OD change (ΔOD) was calculated from the time of minimum response (1 min) to the time of maximum response (120 mins). The rate of SO production (nmoles of SO/10^6 cells/120 mins) was calculated from the ΔOD value and the extinction coefficient of cytochrome c (21.1×103 M-1 cm-1). […]

Row | Substance | Approximate Fold Increase/Decrease in MFI over Parent Compound (iC3b) (human neutrophils [1]) [fold] | MFI(ic3b) compound/MFI(ic3b) PBS (human neutrophils [1]) | Approximate Fold Increase/Decrease in MFI over Parent Compound (BfD IV) (human neutrophils [2]) [fold] | MFI(BID IV) compound/MFI(BID IV) PBS (human neutrophils [2]) | oxidative burst compared with parent scleroglucan and parent MMW yeast β-glucan [3]
1 | Benzyl Amine Laminarin Analog [BT-1234] | 3.9 | 5.1 | 70.0 | 77 | –
2 | Dextran [Dextran (control), reference compound] | – | 1.1 ± 0.2 | – | 1.0 | –
3 | Galactose Propyl Amine MMW Yeast Glucan Analog [BT-1245] | 2.3 | 4.5 ± 1.2 | 1.6 | 6.6 ± 3.78 | –
4 | Mannose Propyl Amine MMW Yeast Glucan Analog [BT-1243] | 4.3 | 8.6 ± 0.3 | 4.7 | 19.7 ± 13.4 | –
5 | Galactose Propyl Amine LMW Yeast Glucan Analog [BT-1277] | 0.9 | 1.0 | 0.9 | 1.3 | –
6 | S-(+)-2-Phenyl Glycinol MMW Yeast Glucan Analog [BT-1300] | 0.8 | 1.6 | 0.6 | 2.5 | –
7 | Benzyl Amine LMW Yeast Glucan Analog [BT-1273] | 2.2 | 2.4 | 11.3 | 17.0 | –
8 | Mannose Propyl Amine Dextran Analog [BT-1287] | 0.9 | 1.0 | 1.0 | 1.0 | –
9 | Galactose Propyl Amine Dextran Analog [BT-1286] | 0.9 | 1.0 | 1.0 | 1.0 | –
10 | Maltose Propyl Amine MMW Yeast Glucan Analog [BT-1248] | 1.8 | 3.5 ± 0.4 | 1.1 | 4.7 ± 3.8 | –
11 | Benzyl Amine Scleroglucan Analog [BT-1272] | 2.4 | 3.9 | 1.7 | 3.2 | –
12 | De-Branched Scleroglucan Analog [BT-1322] | – | – | – | – | higher oxidative burst
13 | Tyrosine MMW Yeast Glucan Analog [BT-1297] | 1.2 | 2.3 | 0.5 | 2.2 | –
14 | Propyl Amine Dextran Analog [BT-1266] | 0.9 | 1.0 | 1.1 | 1.1 | –
15 | Mannose Propyl Amine Laminarin Analog [BT-1281] | 0.8 | 1.1 | 1.1 | 1.2 | –
16 | Laminarin [Laminarin (parent), reference compound] | – | 1.3 | – | 1.1 | –
17 | Mannose Propyl Amine Scleroglucan Analog [BT-1290] | 0.7 | 1.1 | 0.7 | 1.4 | –
18 | 3-Aminopropyl Imidazole MMW Yeast Glucan Analog [BT-1304] | 0.6 | 1.2 | 0.5 | 2.1 | –
19 | Lactose Propyl Amine MMW Yeast Glucan Analog [BT-1244] | 1.5 | 3.0 ± 0.1 | 1.0 | 4.0 ± 1.9 | –
20 | Scleroglucan [Scleroglucan (parent), reference compound] | – | 1.6 | – | 1.9 | –
21 | Propyl Amine MMW Yeast Glucan Analog [BT-1267] | 4.0 | 8.0 ± 3.9 | 5.6 | 23.6 ± 16.4 | –
22 | Propyl Amine LMW Yeast Glucan Analog [BT-1276] | 1.1 | 1.2 ± 0.1 | 1.0 | 1.5 ± 0.1 | –
23 | Benzyl Amine Reducing End MMW Yeast Glucan Analog [BT-1275] | 0.9 | 1.7 ± 0.1 | 0.6 | 2.4 ± 1.2 | –
24 | Mannose Propyl Amine LMW Yeast Glucan Analog [BT-1278] | 0.9 | 1.0 | 0.9 | 1.3 | –
25 | Tryptophan MMW Yeast Glucan Analog [BT-1220] | 5.1 | 10.1 | 4.8 | 20.3 | –
